# Source: patent publication US20160324885A1, “COMPOSITION CONTAINING MODIFIED DERIVATIVES OF A CYTIDINE ANTIMETABOLITE FOR THE TREATMENT OF SUSCEPTIBLE DISEASE” (ASTERIAPHARMA GMBH, priority 2013, published 2016)
# Key:
# [1] = tested on: HeLa cells; test: WST-1 cell proliferation assay, HeLa cells; type: cell-based, human; set-up: dose or concentration left out as unconfirmed; conditions: 5 days after start of treatment, WST-1, relative to untreated cells
# Description: FIG. 1. Inhibition of proliferation of human cancer cells treated with either dFdC or homo-oligomers and hetero-oligomers containing dFdC. HeLa cells growing on 96-well plates (5000 cells/well) were treated with: 1) TpF; 2) FpF; 3) TpFpF; 4) FpFpF; 5) dFdC. The concentration of drug in the culture medium […]. Cell proliferation was measured 5 days after treatment was started using the WST-1 assay. The mean value obtained with untreated cells was set at 1.
# Methods: Cervical cancer cell lines (HeLa, SiHa, CaSki and C-33) were cultured at 37° C./5% CO2 in medium containing DMEM with Glutamax™, 1 mM sodium pyruvate, penicillin/streptomycin (PS) and 10% fetal bovine serum (FBS) (Invitrogen/LifeTechnologies). […] The cells were incubated with WST-1 for 1 hour at 37° C./5% CO2, then the amount of formazan dye produced was quantified using a scanning spectrophotometer (ELISA plate reader). The absorbance was measured with a test wavelength at 450 nm and a reference wavelength at 630 nm. Then, the 630 nm background absorbance was subtracted from the 450 nm measurement. […]
# 2) The FpFpF trinucleotide was tested in comparison with dFdC for its ability to inhibit cell growth of tumor cells of different origin: pancreatic cancer (MIA PaCa-2, ASPC) cervical (HeLa, CaSki, C33A) and hepatic (Huh-7) cancers. […] At this time cell proliferation was quantified using the WST-1 assay as described above. […]
# [2] = following intravenous administration; cited from earlier work
# [3] = mice, normal tissues and subcutaneous sarcoma tissue; cited from earlier work
# [4] = in vivo; cited from earlier work
# [5] = tested on: HeLa cells; test: Proliferation of HeLa cells treated with drug pre-incubated with human serum; type: cell-based; conditions: serum pre-incubation 2 hours at 37° C., then 72 hours on cells
# Description: (§1) Methods: The cells were seeded in 96-well plates one day before treatment at a density of 5000 cells/well in 100 μl/well of medium DMEM/Glutamax™/1 mM sodium pyruvate/PS/10%/FBS and cultured at 37° C./5% CO2. Separate serum dilutions of dFdC and FpFpF trinucleotide were prepared from 1 mM stock solutions to a final concentration of 20 μmol/L. The sera aliquots containing either drug were incubated at 37° C./5% CO2 for the indicated times before they were added to the cells to the indicated final concentrations. The cells were incubated for further 72 hours after which the cell proliferation was quantified using the WST-1 assay. Two controls were run in parallel: untreated cells and cells treated with dFdC or FpFpF trinucleotides that were not incubated with serum.
# [6] = tested on: HeLa cells; test: HeLa xenograft tumor growth delay in immunodeficient mice; type: in vivo; conditions: 10 mg/kg intraperitoneally every fourth day, four doses
# Description: Objective: To compare the anti-tumor activities of FpFpF trinucleotide and dFdC in vivo in a xenograft model. HeLa cells and immunodeficient mice were used in this assay as described below.
# Methods. Immunodeficient CAnN.Cg-Fox1^nu/Cr1 (BALB/c) mice (The Jackson Laboratories) are well suited for the xenotransplantation of human tumors. HeLa cells (5×10^6) were mixed 1:1 with matrigel in a final volume of 0.1 ml and then injected subcutaneously in the right flank of each mouse. Treatments were initiated at the time when the tumor volume reached approximately 200 mm^3. The drugs (FpFpF trinucleotide or dFdC) were administered intraperitoneally at 10 mg/kg every fourth day for a total of four doses. Tumor volumes were calculated with the ellipsoid volume formula (L×W×H×π/6) (Tomayko and Reynolds, 1989). Tumor volume values were transformed to a log scale. A two-way analysis of variance by time and treatment was used. The data are finally expressed as means and standard errors for each treatment group against time. A Weibull distribution was assumed to calculate mean times and standard errors for each treatment group. Tumor growth delay was defined as the difference in mean time between each treated group and the control group.
# [7] = tested on: Panc-1 cells; test: Inhibition of proliferation of Panc-1 cells; type: cell-based; conditions: Homo sapiens, read-out: ID50 (the source's name)
# Description: Methods: The FpFpF trinucleotide was coupled to lipid as described in the Example 3 for the Palmitoyl-trinucleotide (5′-FpFpF-3′-Pal). Panc-1 cells were plated one day before treatment at a density of 5000 cells/well in a 96-well plate with 100 μl/well of medium RPMI/Glutamax™/1 mM sodium pyruvate/PS/10% FBS and cultured at 37° C./5% CO2. Treatments (6 wells per condition) with wither dFdC, FpFpF and FpFpF-Pal were carried out at the indicated concentrations.
# [8] = tested on: MIA PaCa-2 cells; test: Proliferation of MIA PaCa-2 cells treated with drug pre-incubated with human serum; type: cell-based; conditions: MIA PaCa-2, serum pre-incubation 2 hours at 37° C., then 72 hours on cells
# Description: as §1
Compound,inhibition of cell proliferation [1] [%],half-life in the human plasma [2] [min],time radiolabeled dFdC remains in tissues [3],excreted unprocessed in the urine [4],inhibition of proliferation after pre-incubation of drug with human serum [5] [%],"Tumor Growth Delay at 500 mm^3, Mean ± S.E.M. ([6]; tumor size 500 mm^3) [days]","Tumor Growth Delay at 700 mm^3, Mean ± S.E.M. ([6]; tumor size 700 mm^3) [days]","Tumor Growth Delay at 900 mm^3, Mean ± S.E.M. ([6]; tumor size 900 mm^3) [days]",IC50 [7] [µM],inhibition of proliferation after pre-incubation of drug with human serum [8] [%]
"2′-deoxy-2′,2′-difluorocytidinyl 3′-5′ phosphate 2′-deoxy-2′,2′-difluorocytidine [FpF]",~56,,,,,,,,,
"Nc1ccn([C@@H]2O[C@H](CO)[C@@H](O)C2(F)F)c(=O)n1 [dFdC, 2′.2′-difluoro 2′-deoxycytidine]",,8 to 17,up to 3 hours,less than 10%,5,2.8 ± 0.3,4.9 ± 0.6,7.7 ± 0.5,12.2,10
"thymidinyl 3′-5′ phosphate 2′-deoxy-2′,2′-difluorocytidine [TpF]",19,,,,,,,,,
